The data set can be described thus: Solubility of the active substance in solvents and vehicles. The format is physicochemical. The source says: Topically administered active substances are mainly used to treat the redness, swelling, itching and discomfort of psoriasis, atopic dermatitis and other pathologies of the skin. […] Glucocorticosteroids, steroids, calcineurin inhibitors, vitamin D analoques, retinoids, immunosuppressants, antimycotics, antiinfectives, estrogens, androgens, fumaric acid esters are typical drug classes for topical administration with such low water solubility. Other examples for such poorly soluble compounds are provided e.g. in WO 03/082827 or WO 2006/050998. One example is the non-steroidal active substance having the chemical name (R)-1,1,1-Trifluoro-4-(5-fluoro-2,3-dihydrobenzofuran-7-yl)-4-methyl-2-{[(2-methyl-5-quinolyl)amino]methyl}pentan-2-ol, the empirical formula of which is C25H26F4N2O2, having a molecular weight of 462.5. This is the compound according to example 1 of WO 2006/050998 (hereinafter Ex1/998).

With `Cc1ccc2c(NC[C@](O)(CC(C)(C)c3cc(F)cc4c3OCC4)C(F)(F)F)cccc2n1` [Ex1/998, (R)-1,1,1-Trifluoro-4-(5-fluoro-2,3-dihydrobenzofuran-7-yl)-4-methyl-2-{[(2-methyl-5-quinolyl)amino]methyl}pentan-2-ol], under “ethyl alcohol”, the “solubility in ethyl alcohol” value was “moderately soluble”. Moreover, the solubility in hexane result (hexane) is listed as “only slightly soluble”. The “solubility in standard cream and ointment vehicles” value (vehicles for topical administration, such as petrolatum and mineral oils) is given as “very poor solubility”. Where the note is “water”, the solubility in water result was “insoluble”.

The values above are taken from patent publication US8282909B2, “Pharmaceutical composition for topical application of poorly soluble compounds” (Intendis GmbH, priority 2007, dated 2012).
